Measurements reported in patent US10493077B2, “Fused imidazo-piperidine JAK inhibitor compound” (THERAVANCE BIOPHARMA R&D IP, LLC, priority 2017, dated 2019).
Values belong to the compound of their own block, whether it stands above or below them.

Legend:
SLK = target: T1, SLK (Homo sapiens, UniProt Q9H2G2); test: Kinome screen, SLK; assay type: binding; details: screened at 1 μM
T1 construct: made in house; host or cells: T7 phage in E. coli (BL21-derived) or HEK-293
Procedure: (§1) Kinase-tagged T7 phage strains were grown in parallel in 24-well blocks in an E. coli host derived from the BL21 strain. E. coli were grown to log-phase and infected with T7 phage from a frozen stock (multiplicity of infection=0.4) and incubated with shaking at 32° C. until lysis (90-150 minutes). The lysates were centrifuged (6,000×g) and filtered (0.2 μm) to remove cell debris. The remaining kinases were produced in HEK-293 cells and subsequently tagged with DNA for qPCR detection.
(§2) Streptavidin-coated magnetic beads were treated with biotinylated small molecule ligands for 30 minutes at room temperature to generate affinity resins for kinase assays. The liganded beads were blocked with excess biotin and washed with blocking buffer (SeaBlock (Pierce), 1% BSA, 0.05% Tween 20, 1 mM DTT) to remove unbound ligand and to reduce non-specific phage binding. […] Test compounds were prepared as 40× stocks in 100% DMSO and directly diluted into the assay. All reactions were performed in polypropylene 384-well plates in a final volume of 0.04 ml. […] The beads were then re-suspended in elution buffer (1×PBS, 0.05% Tween 20, 0.5 μM non-biotinylated affinity ligand) and incubated at room temperature with shaking for 30 minutes. The kinase concentration in the eluates was measured by qPCR.

CSF1R = target: T2, CSF1R (Homo sapiens, UniProt P07333); test: Kinome screen, CSF1R; assay type: binding; details: screened at 1 μM
T2 construct: made in house; host or cells: T7 phage in E. coli (BL21-derived) or HEK-293
Procedure: as §1, §2

GSK3B = target: T3, GSK3B (Homo sapiens, UniProt P49841); test: Kinome screen, GSK3B; assay type: binding; details: screened at 1 μM
T3 construct: made in house; host or cells: T7 phage in E. coli (BL21-derived) or HEK-293
T3 sequence (P49841 whole entry): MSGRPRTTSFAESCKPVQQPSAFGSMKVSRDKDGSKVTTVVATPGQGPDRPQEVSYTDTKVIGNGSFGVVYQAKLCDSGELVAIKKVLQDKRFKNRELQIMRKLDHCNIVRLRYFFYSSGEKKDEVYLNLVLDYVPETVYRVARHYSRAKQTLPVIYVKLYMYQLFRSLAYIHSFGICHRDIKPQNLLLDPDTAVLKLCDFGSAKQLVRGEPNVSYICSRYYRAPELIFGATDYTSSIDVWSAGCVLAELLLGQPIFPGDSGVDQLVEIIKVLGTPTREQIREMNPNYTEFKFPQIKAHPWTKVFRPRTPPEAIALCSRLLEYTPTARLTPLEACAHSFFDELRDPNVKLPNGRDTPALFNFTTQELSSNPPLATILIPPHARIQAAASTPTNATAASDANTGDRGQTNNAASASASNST
Procedure: as §1, §2

AURKA = target: T4, AURKA (Homo sapiens, UniProt O14965); test: Kinome screen, AURKA; assay type: binding; details: screened at 1 μM
T4 construct: made in house; host or cells: T7 phage in E. coli (BL21-derived) or HEK-293
Procedure: as §1, §2

[1] = test system: BEAS-2B human lung epithelial cells; test: CellTiter-Glo cell viability/cytotoxicity assay; assay type: cell-based; details: BEAS-2B cells, 48 h, concentration at 15% inhibition threshold
Procedure: A CellTiter-Glo luminescent cell viability/cytotoxicity assay was carried out in BEAS-2B human lung epithelial cells (ATCC) under the normal growth condition.
Cells were grown at 37° C. in a 5% CO2 humidified incubator in 50% DMEM/50% F-12 medium (Life Technologies) supplemented with 10% FBS (Hyclone), 100 U/mL penicillin, 100 μg/mL streptomycin (Life Technologies), and 2 mM GlutaMAX (Life Technologies). On day 1 of the assay, cells were seeded at a 500 cells/well density in white 384-well tissue culture plates (Corning) with 25 μL medium, and were allowed to adhere overnight in the incubator. On day 2 of the assay, 5 μL of medium containing dose-responses of test compounds was added, and incubated at 37° C. for 48 h. 30 μL of CellTiter-Glo detection solution (Promega) was subsequently added, mixed on an orbital shaker for 5 min, and incubated for additional 10 min before being read on the EnVision reader. Luminescence signals were recorded and percent DMSO control values were calculated.
For dose-response analysis, percent DMSO control data were plotted vs. compound concentrations to derive dose-response curves by line connecting each data point. The concentration at which each curve crosses the 15% inhibition threshold is defined as CC15.

CDK7 = target: T5, CDK7 (Homo sapiens, UniProt P50613); test: Kinome screen, CDK7; assay type: binding; details: screened at 1 μM
T5 construct: made in house; host or cells: T7 phage in E. coli (BL21-derived) or HEK-293
T5 sequence (P50613 whole entry): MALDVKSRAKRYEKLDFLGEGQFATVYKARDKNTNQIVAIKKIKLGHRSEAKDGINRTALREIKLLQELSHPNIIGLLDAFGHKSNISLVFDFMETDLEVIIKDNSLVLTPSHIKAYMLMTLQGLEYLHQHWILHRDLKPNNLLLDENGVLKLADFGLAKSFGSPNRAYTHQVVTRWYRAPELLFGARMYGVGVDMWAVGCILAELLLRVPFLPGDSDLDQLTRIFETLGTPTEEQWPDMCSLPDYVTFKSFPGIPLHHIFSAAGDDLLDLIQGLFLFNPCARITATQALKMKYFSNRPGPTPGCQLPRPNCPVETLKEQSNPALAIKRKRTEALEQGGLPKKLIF
Procedure: as §1, §2

SRC = target: T6, SRC (Homo sapiens, UniProt P12931); test: Kinome screen, SRC; assay type: binding; details: screened at 1 μM
T6 construct: made in house; host or cells: T7 phage in E. coli (BL21-derived) or HEK-293
Procedure: as §1, §2

CDK2 = target: T7, CDK2 (Homo sapiens, UniProt P24941); test: Kinome screen, CDK2; assay type: binding; details: screened at 1 μM
T7 construct: made in house; host or cells: T7 phage in E. coli (BL21-derived) or HEK-293
Procedure: as §1, §2

35 different kinases = test: Kinome screen: GINI coefficient; assay type: binding; details: panel of 35 different kinases; higher number = more selective
Procedure: as §1
as §2, with “The” for “The beads were then re-suspended in elution buffer (1×PBS, 0.05% Tween 20, 0.5 μM non-biotinylated affinity ligand) and incubated at room temperature with shaking for 30 minutes. The”
Both compounds 1 and C-1 were screened against 35 different kinases. The Gini coefficient was determined for both compounds. […]

PAK4 = target: T8, PAK4 (Homo sapiens, UniProt O96013); test: Kinome screen, PAK4; assay type: binding; details: screened at 1 μM
T8 construct: made in house; host or cells: T7 phage in E. coli (BL21-derived) or HEK-293
Procedure: as §1, §2

VEGFR2 = target: T9, VEGFR2 (Homo sapiens, UniProt P35968); test: Kinome screen, VEGFR2; assay type: binding; details: screened at 1 μM
T9 construct: made in house; host or cells: T7 phage in E. coli (BL21-derived) or HEK-293
T9 sequence (P35968 20-1356): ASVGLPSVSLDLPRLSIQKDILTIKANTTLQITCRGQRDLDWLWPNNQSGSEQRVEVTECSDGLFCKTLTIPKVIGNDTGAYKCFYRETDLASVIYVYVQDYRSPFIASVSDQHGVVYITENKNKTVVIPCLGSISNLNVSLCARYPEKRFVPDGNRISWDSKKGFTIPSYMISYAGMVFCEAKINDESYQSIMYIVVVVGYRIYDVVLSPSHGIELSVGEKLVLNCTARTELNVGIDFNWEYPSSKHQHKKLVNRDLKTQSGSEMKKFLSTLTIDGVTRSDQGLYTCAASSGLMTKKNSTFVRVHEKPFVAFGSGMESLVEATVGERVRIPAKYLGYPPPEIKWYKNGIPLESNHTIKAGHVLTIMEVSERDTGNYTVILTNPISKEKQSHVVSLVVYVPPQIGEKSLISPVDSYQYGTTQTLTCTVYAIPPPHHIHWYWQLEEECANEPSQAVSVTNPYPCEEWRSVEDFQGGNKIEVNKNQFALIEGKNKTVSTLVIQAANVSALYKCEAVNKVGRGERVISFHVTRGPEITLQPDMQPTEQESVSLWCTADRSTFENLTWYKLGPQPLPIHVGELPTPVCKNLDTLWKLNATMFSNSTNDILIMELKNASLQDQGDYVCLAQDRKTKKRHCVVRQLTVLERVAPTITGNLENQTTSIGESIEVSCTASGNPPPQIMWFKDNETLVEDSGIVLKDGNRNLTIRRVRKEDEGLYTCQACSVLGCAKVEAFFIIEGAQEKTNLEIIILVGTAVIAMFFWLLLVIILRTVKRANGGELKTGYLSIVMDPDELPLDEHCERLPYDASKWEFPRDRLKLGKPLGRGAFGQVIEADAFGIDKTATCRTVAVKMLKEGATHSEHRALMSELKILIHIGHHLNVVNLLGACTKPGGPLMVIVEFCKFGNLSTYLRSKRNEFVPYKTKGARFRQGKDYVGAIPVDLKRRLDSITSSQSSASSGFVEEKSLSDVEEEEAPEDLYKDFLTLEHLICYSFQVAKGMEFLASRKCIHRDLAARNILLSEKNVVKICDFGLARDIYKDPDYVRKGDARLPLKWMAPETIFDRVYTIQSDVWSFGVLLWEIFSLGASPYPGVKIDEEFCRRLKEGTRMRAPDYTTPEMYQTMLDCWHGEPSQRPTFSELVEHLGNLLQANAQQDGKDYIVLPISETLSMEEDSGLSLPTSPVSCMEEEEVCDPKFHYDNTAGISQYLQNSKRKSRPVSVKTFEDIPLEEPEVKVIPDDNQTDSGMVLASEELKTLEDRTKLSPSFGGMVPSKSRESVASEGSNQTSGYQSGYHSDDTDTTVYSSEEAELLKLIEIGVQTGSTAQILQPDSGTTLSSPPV
Procedure: as §1, §2

PLK4 = target: T10, PLK4 (Homo sapiens, UniProt O00444); test: Kinome screen, PLK4; assay type: binding; details: screened at 1 μM
T10 construct: made in house; host or cells: T7 phage in E. coli (BL21-derived) or HEK-293
T10 sequence (O00444 whole entry): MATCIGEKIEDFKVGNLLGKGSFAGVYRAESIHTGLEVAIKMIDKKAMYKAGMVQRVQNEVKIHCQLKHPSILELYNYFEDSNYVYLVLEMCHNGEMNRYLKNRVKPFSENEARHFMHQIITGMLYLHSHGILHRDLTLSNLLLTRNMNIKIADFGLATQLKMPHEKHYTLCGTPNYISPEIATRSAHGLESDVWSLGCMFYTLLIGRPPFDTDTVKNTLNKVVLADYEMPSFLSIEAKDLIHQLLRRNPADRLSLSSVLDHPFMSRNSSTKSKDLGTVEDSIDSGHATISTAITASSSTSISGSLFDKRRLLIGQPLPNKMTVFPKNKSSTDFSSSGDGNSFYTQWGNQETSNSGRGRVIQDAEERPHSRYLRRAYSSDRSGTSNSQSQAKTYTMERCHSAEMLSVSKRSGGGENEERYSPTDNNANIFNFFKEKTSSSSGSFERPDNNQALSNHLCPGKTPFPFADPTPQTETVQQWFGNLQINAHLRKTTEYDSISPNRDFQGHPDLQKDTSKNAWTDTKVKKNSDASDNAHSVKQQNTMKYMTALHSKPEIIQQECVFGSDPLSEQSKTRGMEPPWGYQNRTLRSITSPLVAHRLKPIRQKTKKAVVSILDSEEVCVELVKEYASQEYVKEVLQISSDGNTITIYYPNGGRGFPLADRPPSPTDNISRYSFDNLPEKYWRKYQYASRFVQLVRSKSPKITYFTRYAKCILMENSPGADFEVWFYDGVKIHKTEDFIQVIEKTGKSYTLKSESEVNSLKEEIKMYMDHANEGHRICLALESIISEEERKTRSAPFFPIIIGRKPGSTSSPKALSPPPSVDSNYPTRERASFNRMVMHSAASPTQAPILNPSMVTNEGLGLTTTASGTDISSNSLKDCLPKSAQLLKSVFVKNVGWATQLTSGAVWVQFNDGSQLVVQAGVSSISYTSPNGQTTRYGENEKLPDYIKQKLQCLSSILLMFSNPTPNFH
Procedure: as §1, §2

EPHB6 = target: T11, EPHB6 (Homo sapiens, UniProt O15197); test: Kinome screen, EPHB6; assay type: binding; details: screened at 1 μM
T11 construct: made in house; host or cells: T7 phage in E. coli (BL21-derived) or HEK-293
Procedure: as §1, §2

ALK = target: T12, ALK (Homo sapiens, UniProt Q9UM73); test: Kinome screen, ALK; assay type: binding; details: screened at 1 μM
T12 construct: made in house; host or cells: T7 phage in E. coli (BL21-derived) or HEK-293
T12 sequence (Q9UM73 19-1620): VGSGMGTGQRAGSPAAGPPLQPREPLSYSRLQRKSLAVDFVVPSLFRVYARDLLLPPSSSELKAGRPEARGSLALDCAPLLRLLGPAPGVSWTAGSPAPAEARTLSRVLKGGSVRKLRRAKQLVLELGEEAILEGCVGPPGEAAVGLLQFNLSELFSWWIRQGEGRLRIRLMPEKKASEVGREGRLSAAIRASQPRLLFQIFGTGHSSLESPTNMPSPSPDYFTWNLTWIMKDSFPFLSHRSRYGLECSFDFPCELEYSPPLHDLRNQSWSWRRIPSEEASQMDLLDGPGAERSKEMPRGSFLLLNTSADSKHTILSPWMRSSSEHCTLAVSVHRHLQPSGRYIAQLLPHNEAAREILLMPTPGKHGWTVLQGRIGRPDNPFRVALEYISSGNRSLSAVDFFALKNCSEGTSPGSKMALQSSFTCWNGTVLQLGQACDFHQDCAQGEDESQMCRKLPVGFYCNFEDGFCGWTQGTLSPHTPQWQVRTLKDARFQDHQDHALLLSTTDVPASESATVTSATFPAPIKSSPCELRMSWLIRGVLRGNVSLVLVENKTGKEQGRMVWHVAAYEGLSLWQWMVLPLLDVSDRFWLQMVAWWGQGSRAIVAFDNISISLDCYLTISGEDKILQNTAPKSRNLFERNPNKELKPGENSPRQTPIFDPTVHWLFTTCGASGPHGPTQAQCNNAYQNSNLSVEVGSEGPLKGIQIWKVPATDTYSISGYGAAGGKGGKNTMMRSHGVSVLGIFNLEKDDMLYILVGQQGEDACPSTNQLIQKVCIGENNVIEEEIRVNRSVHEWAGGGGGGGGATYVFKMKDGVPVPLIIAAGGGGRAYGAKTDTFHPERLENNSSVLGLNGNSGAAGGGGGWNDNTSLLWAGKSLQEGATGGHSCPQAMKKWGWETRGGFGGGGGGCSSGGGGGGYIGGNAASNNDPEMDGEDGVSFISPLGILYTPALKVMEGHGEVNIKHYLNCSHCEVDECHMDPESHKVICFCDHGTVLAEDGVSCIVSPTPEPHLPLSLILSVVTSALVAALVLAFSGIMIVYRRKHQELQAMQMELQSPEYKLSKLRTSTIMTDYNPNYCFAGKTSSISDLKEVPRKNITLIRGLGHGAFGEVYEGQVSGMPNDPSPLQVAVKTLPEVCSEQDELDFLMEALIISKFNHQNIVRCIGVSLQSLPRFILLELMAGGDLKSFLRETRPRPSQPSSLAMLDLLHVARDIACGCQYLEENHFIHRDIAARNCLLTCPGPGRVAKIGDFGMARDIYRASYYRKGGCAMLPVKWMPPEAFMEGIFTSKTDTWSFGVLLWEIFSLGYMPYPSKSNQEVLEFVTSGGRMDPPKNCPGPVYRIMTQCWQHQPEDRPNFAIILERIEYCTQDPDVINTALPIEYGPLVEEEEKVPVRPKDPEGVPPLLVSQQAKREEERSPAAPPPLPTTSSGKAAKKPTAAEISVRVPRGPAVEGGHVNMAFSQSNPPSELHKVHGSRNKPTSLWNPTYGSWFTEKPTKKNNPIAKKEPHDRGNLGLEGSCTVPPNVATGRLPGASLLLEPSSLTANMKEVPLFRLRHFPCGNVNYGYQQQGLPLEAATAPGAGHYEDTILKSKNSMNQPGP
Procedure: as §1, §2

PKAC-ALPHA = target: T13, PKAC-ALPHA (Homo sapiens, UniProt P17612); test: Kinome screen, PKAC-ALPHA; assay type: binding; details: screened at 1 μM
T13 construct: made in house; host or cells: T7 phage in E. coli (BL21-derived) or HEK-293
Procedure: as §1, §2

SYK = target: T14, SYK (Homo sapiens, UniProt P43405); test: Kinome screen, SYK; assay type: binding; details: screened at 1 μM
T14 construct: made in house; host or cells: T7 phage in E. coli (BL21-derived) or HEK-293
Procedure: as §1, §2

CDK9 = target: T15, CDK9 (Homo sapiens, UniProt P50750); test: Kinome screen, CDK9; assay type: binding; details: screened at 1 μM
T15 construct: made in house; host or cells: T7 phage in E. coli (BL21-derived) or HEK-293
T15 sequence (P50750 whole entry): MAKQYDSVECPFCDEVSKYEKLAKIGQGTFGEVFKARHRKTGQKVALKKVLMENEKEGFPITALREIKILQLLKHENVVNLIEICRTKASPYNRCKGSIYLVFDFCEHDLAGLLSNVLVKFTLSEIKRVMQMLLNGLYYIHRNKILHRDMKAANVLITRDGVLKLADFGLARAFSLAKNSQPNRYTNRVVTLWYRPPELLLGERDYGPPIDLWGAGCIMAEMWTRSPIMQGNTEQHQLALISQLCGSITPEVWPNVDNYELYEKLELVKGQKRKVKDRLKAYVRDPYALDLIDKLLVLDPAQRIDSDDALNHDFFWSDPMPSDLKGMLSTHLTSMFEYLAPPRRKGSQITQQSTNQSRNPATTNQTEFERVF
Procedure: as §1, §2

KIT = target: T16, KIT (Homo sapiens, UniProt P10721); test: Kinome screen, KIT; assay type: binding; details: screened at 1 μM
T16 construct: made in house; host or cells: T7 phage in E. coli (BL21-derived) or HEK-293
Procedure: as §1, §2

[2] = Dynamic moisture sorption assessment; assay type: physicochemical; details: for weight gain, 5% to 70% relative humidity / weight gain, 5% to 90% relative humidity: room temperature
Procedure: Dynamic moisture sorption (DMS) measurement was performed using a VTI atmospheric microbalance, SGA-100 system (VTI Corp., Hialeah, Fla. 33016). A weighed sample was used and the humidity was lowest possible value (close to 0% RH) at the start of the analysis. The DMS analysis consisted of an initial drying step (0% RH) for 120 minutes, followed by two cycles of sorption and desorption with a scan rate of 5% RH/step over the humidity range of 5% RH to 90% RH. The DMS run was performed isothermally at 25° C.

[3] = Solid state stability assessment of Form 1; assay type: physicochemical
Procedure: Samples of the Form 1 crystalline free form of the invention were stored at 25° C. and 60% relative humidity (RH) and at 40° C. and 75% RH under two configurations a) open glass vial and b) closed glass vial placed inside an HDPE bottle containing desiccant. HDPE bottle was induction sealed. At specific intervals, the contents of a representative sample were removed and analyzed by HPLC for chemical purity (shown below as HPLC Purity (% a/a)).

- inhibition at 1 µM (SLK): 100%
- inhibition at 1 µM (CSF1R): 100%
- inhibition at 1 µM (GSK3B): 68%
- inhibition at 1 µM (AURKA): 57%
- inhibition at 1 µM (CDK7): 99%
- inhibition at 1 µM (SRC): 100%
- inhibition at 1 µM (CDK2): 53%
- inhibition at 1 µM (PAK4): 99%
- inhibition at 1 µM (VEGFR2): 63%
- inhibition at 1 µM (PLK4): 68%
- inhibition at 1 µM (EPHB6): 98%
- inhibition at 1 µM (ALK): 81%
- inhibition at 1 µM (PKAC-ALPHA): 70%
- inhibition at 1 µM (SYK): 78%
- inhibition at 1 µM (CDK9): 95%
- inhibition at 1 µM (KIT): 99%
Structure (SMILES): CCc1cc(O)c(F)cc1-c1ccc2c(-c3nc4c([nH]3)CCN(C(=O)CN3CCOCC3)C4)n[nH]c2c1 [C-1, 1-(2-(6-(2-Ethyl-5-fluoro-4-hydroxyphenyl)-1H-indazol-3-yl)-1,4,6,7-tetrahydro-5H-imidazo[4,5-c]pyridin-5-yl)-2-morpholinoethan-1-one, reference compound]
- CC15 [1]: 0.63 µM
- GINI coefficient (35 different kinases): 0.46

Structure (SMILES): CCc1cc(O)c(F)cc1-c1cc(F)c2c(-c3nc4c([nH]3)CCN(C(=O)CN3CCOCC3)C4)n[nH]c2c1 [Form 1, 1-(2-(6-(2-Ethyl-5-fluoro-4-hydroxyphenyl)-4-fluoro-1H-indazol-3-yl)-1,4,6,7-tetrahydro-5H-imidazo[4,5-c]pyridin-5-yl)-2-morpholinoethan-1-one]
- hygroscopicity [2]: slightly-hygroscopic
- weight gain, 5% to 70% relative humidity [2]: about 0.99%
- weight gain, 5% to 90% relative humidity [2]: about 1.32%
- HPLC Purity ([3]; 2 weeks, 40° C./75% RH Open): 98.72 % a/a
- HPLC Purity ([3]; 4 weeks, 25° C./60% RH Closed With Desiccant): 98.75 % a/a
- HPLC Purity ([3]; 4 weeks, 25° C./60% RH Open): 98.75 % a/a
- HPLC Purity ([3]; 4 weeks, 40° C./75% RH Closed With Desiccant): 98.75 % a/a
- HPLC Purity ([3]; 4 weeks, 40° C./75% RH Open): 98.70 % a/a
- HPLC Purity ([3]; 8 weeks, 25° C./60% RH Closed With Desiccant): 98.87 % a/a
- HPLC Purity ([3]; 8 weeks, 25° C./60% RH Open): 98.75 % a/a
- HPLC Purity ([3]; 8 weeks, 40° C./75% RH Closed With Desiccant): 98.80 % a/a
- HPLC Purity ([3]; 8 weeks, 40° C./75% RH Open): 98.97 % a/a
- HPLC Purity ([3]; 24 weeks, 25° C./60% RH Closed With Desiccant): 99.02 % a/a
- HPLC Purity ([3]; 24 weeks, 25° C./60% RH Open): 98.78 % a/a
- HPLC Purity ([3]; 24 weeks, 40° C./75% RH Closed With Desiccant): 99.06 % a/a
- HPLC Purity ([3]; 24 weeks, 40° C./75% RH Open): 98.89 % a/a
- HPLC Purity ([3]; 36 weeks, 25° C./60% RH Closed With Desiccant): 98.80 % a/a
- HPLC Purity ([3]; 36 weeks, 25° C./60% RH Open): 98.75 % a/a
- HPLC Purity ([3]; 36 weeks, 40° C./75% RH Closed With Desiccant): 98.86 % a/a
- HPLC Purity ([3]; 36 weeks, 40° C./75% RH Open): 98.71 % a/a
- changes in chemical purity ([3]; after 36 weeks at accelerated conditions of 40° C. and 75% relative humidity): no statistically significant changes
- HPLC Purity ([3]; time point 0 weeks): 98.73 % a/a

Structure (SMILES): CCc1cc(O)c(F)cc1-c1cc(F)c2c(-c3nc4c([nH]3)CCN(C(=O)CN3CCOCC3)C4)n[nH]c2c1 [Form 2, 1-(2-(6-(2-Ethyl-5-fluoro-4-hydroxyphenyl)-4-fluoro-1H-indazol-3-yl)-1,4,6,7-tetrahydro-5H-imidazo[4,5-c]pyridin-5-yl)-2-morpholinoethan-1-one]
- hygroscopicity [2]: non-hygroscopic
- weight gain, 5% to 70% relative humidity [2]: about 0.12%
- weight gain, 5% to 90% relative humidity [2]: about 0.18%
